Patent US20110257220A1, “3,11 b-cis-Dihydrotetrabenazine for the Treatment of Schizophrenia and Other Psychoses” (CAMBRIDGE LABORATORIES (IRELAND) LIMITED, priority 2005, published 2011)

How the values were obtained:
[1] = molecular target: T1, Dopamine Transporter (DAT) (Homo sapiens, UniProt Q01959); experiment: Dopamine transporter radioligand binding ([125I] RTI-55); conditions: 10 μM solution; for inhibition at 10 µM: read-out: Percentage Inhibition of Specific Binding, DAT
T1 construct: expressed in transfected cells; host or cells: CHO cells
Description: (§1) The four dihydrotetrabenazine isomers A, B, C and D were subjected to specific binding assays to test their ability to bind to the receptors and transporter proteins described below. The results are set out in Table 5
(j) Dopamine Transporter (DAT):
• Reference: Giros et al., Trends Pharmacol. Sci., 14, 43-49 (1993) Gu et al., J. Biol. Chem., 269(10):7124-7130 (1994) • Source: Human recombinant CHO cells • Ligand: 0.15 nM [^125I]

Adrenergic α2B Receptor = molecular target: T2, Adrenergic α2B Receptor (Homo sapiens, UniProt P18089); experiment: Adrenergic α2B receptor radioligand binding ([3H] Rauwolscine); conditions: 10 μM solution; for inhibition at 10 µM: read-out: Percentage Inhibition of Specific Binding, α2B Receptor
T2 construct: expressed in transfected cells; host or cells: CHO-K1 cells
T2 sequence (P18089 1-450): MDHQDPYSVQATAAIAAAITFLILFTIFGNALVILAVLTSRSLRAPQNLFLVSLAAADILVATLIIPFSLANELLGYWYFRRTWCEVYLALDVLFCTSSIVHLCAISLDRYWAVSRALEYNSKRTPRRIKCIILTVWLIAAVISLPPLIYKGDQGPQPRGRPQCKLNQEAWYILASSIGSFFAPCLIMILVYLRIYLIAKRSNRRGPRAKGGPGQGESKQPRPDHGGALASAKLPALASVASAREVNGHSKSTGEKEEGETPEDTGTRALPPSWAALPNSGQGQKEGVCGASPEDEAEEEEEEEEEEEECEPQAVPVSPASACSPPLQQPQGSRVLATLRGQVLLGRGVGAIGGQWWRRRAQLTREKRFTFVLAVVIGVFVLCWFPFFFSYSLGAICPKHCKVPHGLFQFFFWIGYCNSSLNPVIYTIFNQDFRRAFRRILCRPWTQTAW
Description: as §1
(b) Adrenergic α2B Receptor:
• Reference: S. Uhlen et al., Eur. I Pharmacol., 33 (1): 93-1-1 (1998) • Source: Human recombinant CHO-K1 cells • Ligand: 2.5 nM [3H]

[2] = molecular target: T3, Serotonin (5-hydroxytryptamine) 5-HT2b Receptor (Homo sapiens, UniProt P41595); experiment: 5-HT2b receptor radioligand binding ([3H] LSD); conditions: 10 μM solution; for inhibition at 10 µM: read-out: Percentage Inhibition of Specific Binding, 5-HT2b receptor
T3 construct: expressed in transfected cells; host or cells: CHO-K1 cells

Dopamine D1 Receptor = molecular target: T4, Dopamine D1 Receptor (Homo sapiens, UniProt P21728); experiment: Dopamine D1 receptor radioligand binding ([3H] SCH-23390); conditions: 10 μM solution; for inhibition at 10 µM: read-out: Percentage Inhibition of Specific Binding, D1 Receptor
T4 construct: expressed in transfected cells; host or cells: CHO cells
Description: as §1
(c) Dopamine D1 Receptor:
• Reference: Dearry et al., Nature, 347:72-76, (1990) • Source: Human recombinant CHO cells • Ligand: 1.4 nM [3H]

Sigma σ1 Receptor = molecular target: T5, Sigma σ1 Receptor (Homo sapiens, UniProt Q99720); experiment: Sigma σ1 receptor radioligand binding ([3H] Haloperidol); conditions: 10 μM solution; for inhibition at 10 µM: read-out: Percentage Inhibition of Specific Binding, σ1 Receptor
T5 construct: endogenous in cells; host or cells: Jurkat cells
Description: as §1
• Reference: Ganaphthy et al., Pharmacol. Exp. Ther., 289:251-260, (1999) • Source: Human jurkat cells • Ligand: 8 nM [3H]

[3] = molecular target: T6, Serotonin (5-hydroxytryptamine) 5-HT6 Receptor (Homo sapiens, UniProt P50406); experiment: 5-HT6 receptor radioligand binding ([3H] LSD); conditions: 10 μM solution; for inhibition at 10 µM: read-out: Percentage Inhibition of Specific Binding, 5-HT6 receptor
T6 construct: expressed in transfected cells; host or cells: HeLa cells
Excerpt: as §1

[4] = molecular target: T7, Serotonin Transporter (SERT) (Homo sapiens, UniProt P31645); experiment: Serotonin transporter radioligand binding ([125I] RTI-55); conditions: for inhibition at 10 µM: read-out: Percentage Inhibition of Specific Binding, SERT
T7 construct: expressed in transfected cells; host or cells: HEK-293 cells
Description: as §1
(i) Serotonin Transporter (SERT):
• Reference: Gu et al., J. Biol. Chem., 269(10):7124-7130, (1994) • Source: Human recombinant HEK-293 cells • Ligand: 0.15 nM [125I] RTI-55 • Vehicle: 1% DMSO • Incubation time/Temp: 3 hours @ 4° C. • Incubation buffer: 100 mM NaCl, 50 mM Tris HCl, 1 μM Leupeptin, 10 μM PMSF, pH 7.4 • Non Specific ligand: 10 μM Imipramine • Kd: 0.17 nM • Bmax: 0.41 pmole/mg protein • Specific binding: 95% • Quantitation method: Radioligand binding • Significance criteria: ≧50% of maximum stimulation or inhibition

Adrenergic α2A Receptor = molecular target: T8, Adrenergic α2A Receptor (Homo sapiens, UniProt P08913); experiment: Adrenergic α2A receptor radioligand binding ([3H] MK-912); conditions: 10 μM solution; for inhibition at 10 µM: read-out: Percentage Inhibition of Specific Binding, α2A Receptor
T8 construct: expressed in transfected cells; host or cells: insect Sf9 cells
T8 sequence (P08913 1-465): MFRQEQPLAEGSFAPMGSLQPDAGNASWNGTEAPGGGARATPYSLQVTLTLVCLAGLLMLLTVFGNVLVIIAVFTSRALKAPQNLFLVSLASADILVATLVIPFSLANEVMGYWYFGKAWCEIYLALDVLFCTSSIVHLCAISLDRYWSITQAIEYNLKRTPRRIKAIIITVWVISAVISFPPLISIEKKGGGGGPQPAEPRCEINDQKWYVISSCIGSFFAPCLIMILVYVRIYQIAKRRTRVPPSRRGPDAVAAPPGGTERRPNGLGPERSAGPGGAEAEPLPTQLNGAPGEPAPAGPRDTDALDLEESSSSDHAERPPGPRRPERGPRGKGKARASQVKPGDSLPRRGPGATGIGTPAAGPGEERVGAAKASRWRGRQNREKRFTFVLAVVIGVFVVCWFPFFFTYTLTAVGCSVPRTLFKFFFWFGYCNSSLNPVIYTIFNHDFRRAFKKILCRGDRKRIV
Description: as §1
(a) Adrenergic α2A Receptor:
• Reference: S. Uhlen et al. J. Pharmacol. Exp. Ther., 271:1558-1565 (1994) • Source: Human recombinant insect Sf9 cells • Ligand: 1 nM [^3H]

[5] = test system: Imidazoline I2 (Central) Receptor; experiment: Imidazoline I2 (central) receptor radioligand binding ([3H] Idazoxan); design: species or system Wistar rat; conditions: 10 μM solution
Description: as §1
(f) Imidazoline I2 (Central) Receptor:
• Reference: Brown et al., Brit. I Pharmacol., 99:803-809, (1990) • Source: Wistar rat cerebral cortex • Ligand: 2 nM [3H] Idazoxan • Vehicle: 1% DMSO • Incubation time/Temp: 30 minutes @ 25° C. • Incubation buffer: 50 mM Tris-HCl, 0.5 mM EDTA, pH 7.4 at 25° C. • Non Specific ligand: 1 μM Idazoxan • Kd: 4 nM • Bmax: 0.14 pmole/mg protein • Specific binding: 85% • Quantitation method: Radioligand binding • Significance criteria: ≧50% of maximum stimulation or inhibition

T5 sequence (Q99720 whole entry): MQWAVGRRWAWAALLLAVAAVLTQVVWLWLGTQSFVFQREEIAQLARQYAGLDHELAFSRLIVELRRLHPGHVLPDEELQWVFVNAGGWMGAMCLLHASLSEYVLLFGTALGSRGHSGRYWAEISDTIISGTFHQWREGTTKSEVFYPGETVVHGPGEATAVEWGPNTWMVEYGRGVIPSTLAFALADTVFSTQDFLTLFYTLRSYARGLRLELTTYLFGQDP
T1 sequence (Q01959 whole entry): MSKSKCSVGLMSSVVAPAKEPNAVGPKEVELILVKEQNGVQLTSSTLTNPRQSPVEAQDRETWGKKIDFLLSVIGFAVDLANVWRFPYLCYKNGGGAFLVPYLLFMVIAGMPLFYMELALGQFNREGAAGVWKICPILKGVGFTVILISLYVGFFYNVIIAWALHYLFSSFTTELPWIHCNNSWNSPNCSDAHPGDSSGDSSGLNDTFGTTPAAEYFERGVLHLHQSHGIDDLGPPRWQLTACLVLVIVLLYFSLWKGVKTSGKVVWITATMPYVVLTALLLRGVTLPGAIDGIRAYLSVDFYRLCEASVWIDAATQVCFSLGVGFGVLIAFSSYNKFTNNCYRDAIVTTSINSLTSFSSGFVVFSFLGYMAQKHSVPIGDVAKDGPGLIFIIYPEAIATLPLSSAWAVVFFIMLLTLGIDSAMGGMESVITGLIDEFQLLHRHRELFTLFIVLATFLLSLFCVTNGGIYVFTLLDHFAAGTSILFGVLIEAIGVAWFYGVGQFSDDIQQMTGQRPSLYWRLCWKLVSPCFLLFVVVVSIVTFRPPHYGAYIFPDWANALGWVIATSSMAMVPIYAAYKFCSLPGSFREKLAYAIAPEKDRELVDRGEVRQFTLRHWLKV
T6 sequence (P50406 whole entry): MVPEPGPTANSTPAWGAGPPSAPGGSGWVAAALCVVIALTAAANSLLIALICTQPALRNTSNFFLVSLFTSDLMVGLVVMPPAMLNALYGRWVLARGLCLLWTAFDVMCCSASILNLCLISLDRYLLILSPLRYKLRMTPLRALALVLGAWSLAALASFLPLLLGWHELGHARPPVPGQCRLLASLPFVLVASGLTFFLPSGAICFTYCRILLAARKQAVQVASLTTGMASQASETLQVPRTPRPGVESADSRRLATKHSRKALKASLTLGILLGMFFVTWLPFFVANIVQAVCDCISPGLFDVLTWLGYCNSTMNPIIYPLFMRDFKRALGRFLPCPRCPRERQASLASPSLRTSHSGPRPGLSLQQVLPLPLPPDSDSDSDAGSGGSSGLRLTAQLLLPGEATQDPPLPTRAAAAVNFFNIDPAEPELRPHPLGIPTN
T4 sequence (P21728 whole entry): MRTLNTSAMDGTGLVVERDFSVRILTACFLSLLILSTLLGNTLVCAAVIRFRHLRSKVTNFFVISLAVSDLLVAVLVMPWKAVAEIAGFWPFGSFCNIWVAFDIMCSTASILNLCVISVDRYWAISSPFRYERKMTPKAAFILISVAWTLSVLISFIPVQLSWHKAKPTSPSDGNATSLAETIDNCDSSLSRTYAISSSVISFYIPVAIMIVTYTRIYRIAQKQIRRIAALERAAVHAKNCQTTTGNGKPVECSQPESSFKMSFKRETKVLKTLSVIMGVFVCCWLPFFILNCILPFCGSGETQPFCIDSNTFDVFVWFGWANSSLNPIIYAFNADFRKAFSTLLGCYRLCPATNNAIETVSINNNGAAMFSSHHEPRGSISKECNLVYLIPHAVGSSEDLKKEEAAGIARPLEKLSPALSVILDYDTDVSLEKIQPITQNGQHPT
T7 sequence (P31645 whole entry): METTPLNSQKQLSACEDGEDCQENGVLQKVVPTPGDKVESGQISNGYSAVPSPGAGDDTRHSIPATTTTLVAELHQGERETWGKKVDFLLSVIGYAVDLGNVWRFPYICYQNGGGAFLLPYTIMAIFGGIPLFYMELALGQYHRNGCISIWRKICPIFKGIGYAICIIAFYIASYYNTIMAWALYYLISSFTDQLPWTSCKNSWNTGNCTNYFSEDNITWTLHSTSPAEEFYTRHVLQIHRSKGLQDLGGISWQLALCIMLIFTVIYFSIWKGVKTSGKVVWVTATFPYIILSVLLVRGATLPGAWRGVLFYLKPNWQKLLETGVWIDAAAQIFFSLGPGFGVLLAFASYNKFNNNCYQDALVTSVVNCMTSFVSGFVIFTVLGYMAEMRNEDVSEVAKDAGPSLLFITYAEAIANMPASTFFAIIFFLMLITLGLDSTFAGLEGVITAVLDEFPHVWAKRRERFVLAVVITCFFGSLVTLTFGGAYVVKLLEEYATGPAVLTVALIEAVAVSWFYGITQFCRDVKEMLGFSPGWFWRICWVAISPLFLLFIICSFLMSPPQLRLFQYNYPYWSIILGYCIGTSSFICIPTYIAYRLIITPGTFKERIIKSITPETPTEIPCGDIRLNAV
T3 sequence (P41595 whole entry): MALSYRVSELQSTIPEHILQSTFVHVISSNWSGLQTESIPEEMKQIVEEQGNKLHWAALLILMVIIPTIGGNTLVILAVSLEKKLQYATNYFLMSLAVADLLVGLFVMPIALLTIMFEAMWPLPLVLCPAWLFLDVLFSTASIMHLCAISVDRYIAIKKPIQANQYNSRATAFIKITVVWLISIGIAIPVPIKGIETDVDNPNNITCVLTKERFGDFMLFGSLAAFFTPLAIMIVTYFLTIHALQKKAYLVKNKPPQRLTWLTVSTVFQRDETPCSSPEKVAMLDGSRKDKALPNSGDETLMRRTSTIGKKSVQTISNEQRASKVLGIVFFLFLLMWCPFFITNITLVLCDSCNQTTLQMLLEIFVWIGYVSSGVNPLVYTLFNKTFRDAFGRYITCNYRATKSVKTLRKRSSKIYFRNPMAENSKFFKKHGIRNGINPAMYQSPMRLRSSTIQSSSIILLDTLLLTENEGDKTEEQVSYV

Structure (SMILES)	inhibition at 10 µM [1] [%]	inhibition at 10 µM (Adrenergic α2B Receptor) [%]	inhibition at 10 µM [2] [%]	inhibition at 10 µM (Dopamine D1 Receptor) [%]	inhibition at 10 µM (Sigma σ1 Receptor) [%]	inhibition at 10 µM [3] [%]	inhibition at 10 µM ([4]; 10 μM solution) [%]	inhibition at 10 µM (Adrenergic α2A Receptor) [%]	Percentage Inhibition of Specific Binding, I2 Receptor [5] [%]	IC50 ([4]; value in parentheses, unit inferred) [nM]	Percentage Inhibition of Specific Binding, DAT [1] [%]	Percentage Inhibition of Specific Binding, α2B Receptor (Adrenergic α2B Receptor) [%]	Percentage Inhibition of Specific Binding, 5-HT2b receptor [2] [%]	Percentage Inhibition of Specific Binding, D1 Receptor (Dopamine D1 Receptor) [%]	Percentage Inhibition of Specific Binding, σ1 Receptor (Sigma σ1 Receptor) [%]	Percentage Inhibition of Specific Binding, 5-HT6 receptor [3] [%]	Percentage Inhibition of Specific Binding, SERT ([4]; 10 μM solution) [%]	Percentage Inhibition of Specific Binding, α2A Receptor (Adrenergic α2A Receptor) [%]
COc1cc2c(cc1OC)[C@@H]1C[C@@H](O)[C@H](CC(C)C)CN1CC2 (single isomer, unassigned) [Isomer A]	3	44	74	78	48	51	19	86	74									
COc1cc2c(cc1OC)[C@H]1C[C@H](O)[C@@H](CC(C)C)CN1CC2 (single isomer, unassigned) [Isomer B]	4	14	10	1	82	10	86	12	8									
COc1cc2c(cc1OC)C1CC(O)C(CC(C)C)CN1CC2 (single isomer, unassigned) [Isomer C]	-2	-7	14	6	59	10	77	13	0	2750								
COc1cc2c(cc1OC)[C@H]1C[C@@H](O)[C@H](CC(C)C)CN1CC2 (single isomer, unassigned; isomer d) [Isomer D]									55		2	50	43	38	82	41	8	87
